Measurements published in ChEMBL document CHEMBL5154793, “Discovery of Thieno[2,3-d]pyrimidine-based KRAS G12D inhibitors as potential anticancer agents via combinatorial virtual screening” (Eur J Med Chem, 2022).

Test system: SW1990
Assay: Induction of apoptosis in human SW1990 cells assessed as necrotic cells at 4 uM measured after 24 hrs by PI/Annexin V staining based flow cytometric analysis (reference value: 2.69%)
Format: functional

COc1ccc(C(F)(F)F)cc1-c1cc2c(N3CC4CCC(C3)N4)ncnc2s1
Activity: 8.76%
